This experiment addresses T1, recombinant human LTA4 hydrolase (rhLTA4H) (Homo sapiens, UniProt P09960).
T1 construct: made in house; host or cells: Spodoptera frugiperda (Sf-9) cells, recombinant baculovirus (pFastBac1)
T1 sequence (P09960 1-611): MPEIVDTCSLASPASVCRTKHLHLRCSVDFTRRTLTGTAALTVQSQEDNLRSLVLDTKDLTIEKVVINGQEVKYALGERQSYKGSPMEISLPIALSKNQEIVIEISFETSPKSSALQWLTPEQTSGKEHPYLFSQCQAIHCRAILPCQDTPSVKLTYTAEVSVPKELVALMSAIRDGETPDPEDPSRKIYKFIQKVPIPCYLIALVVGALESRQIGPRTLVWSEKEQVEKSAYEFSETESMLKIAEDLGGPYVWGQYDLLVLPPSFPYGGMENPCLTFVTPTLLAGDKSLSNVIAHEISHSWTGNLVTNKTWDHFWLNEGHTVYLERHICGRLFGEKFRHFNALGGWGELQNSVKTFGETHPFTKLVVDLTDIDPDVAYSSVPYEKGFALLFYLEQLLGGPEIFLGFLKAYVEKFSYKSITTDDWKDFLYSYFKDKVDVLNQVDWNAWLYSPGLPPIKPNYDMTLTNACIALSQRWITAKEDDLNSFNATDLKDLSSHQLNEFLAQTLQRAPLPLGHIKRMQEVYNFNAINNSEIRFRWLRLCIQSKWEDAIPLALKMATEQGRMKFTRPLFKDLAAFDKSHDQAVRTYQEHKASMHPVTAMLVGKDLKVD
As to the kind of experiment: Recombinant human LTA4 hydrolase assay for LTA4 hydrolase inhibitor activity. Type of experiment: biochemical. As to conditions: rhLTA4H, LTA4 substrate, LTB4 by immunoassay; single determination or average; read-out: IC50. As to the method: Assay 1: Recombinant Human LTA4 Hydrolase Assay for LTA4 Hydrolase Inhibitor Activity
Compounds of the present invention were tested for LTA4 hydrolase inhibitor activity against recombinant human LTA4 hydrolase (rhLTA4H). Vectors were prepared and used to express rhLTA4H essentially as follows: LTA4 hydrolase encoding DNA was amplified by polymerase chain reaction (PCR) using a human placental cDNA library as a template. […] The amplified 1.9 kb DNA fragment encoding LTA4 hydrolase was isolated and cloned into the pFastBac1 vector (Invitrogen). Recombinant baculovirus was generated as described by the manufacturer, and used to infect Spodoptera frugiperda (Sf-9) cells. […] The purified enzyme solution was adjusted to contain 0.29 mg/mL LTA4 hydrolase, 50 mM Tris (pH 8.0), 150 mM NaCl, 5 mM dithiothreitol, 50% glycerol, and EDTA-free Complete protease inhibitor cocktail (Roche).
LTA4 substrate was prepared from the methyl ester of LTA4 (Cayman Chemical) by treatment with 67 equiv of NaOH under nitrogen at rt for 40 min. The LTA4 substrate in its free acid form was kept frozen at −80° C. until needed. Each compound was diluted to different concentrations in assay buffer (from Assay Designs) containing 10% DMSO. A 25-μL aliquot of each compound dilution was incubated for 10 min at rt with an equal volume of assay buffer containing 10 ng of recombinant human LTA4H. The solution was then adjusted to 200 μL with assay buffer. […] Each reaction was carried out at rt for 30 min. The reaction was stopped by diluting 10 μL of the reaction mixture with 200 μL of assay buffer. LTB4 was quantified in the diluted sample by a commercially available enzyme-linked immunoassay (Cayman Chemical Co.), as recommended by the manufacturer. Positive controls, under essentially identical conditions but without addition of an inhibitor compound, and negative controls, containing all assay components except enzyme, were routinely run in each experiment. IC50 values were determined by nonlinear regression of the activity data at different compound concentrations using Graphpad Prism 4.0, one site binding competition.
The values presented here are the result of a single determination or an average of two or more determinations, as indicated in parentheses following each value. For compounds tested three or more times, the average value is followed by the standard deviation

IC50 data for 29 compounds are collected here from patent US20110190503A1, “Thiazolopyridin-2-yloxy-phenyl and thiazolopyrazin-2-yloxy-phenyl amines as modulators of leukotriene A4 hydrolase” (Janssen Pharmaceutical NV, priority 2008, published 2011).

One may read the IC50 as the concentration needed to halve the response being measured.

Counter-ions that a name gives are not always drawn.

For `COCC(=O)NC1CCN(Cc2ccc(Oc3nc4ncc(C)cc4s3)cc2)CC1` [Example 216, 2-Methoxy-N-(1-{4-[(6-methyl[1,3]thiazolo[4,5-b]pyridin-2-yl)oxy]benzyl}piperidin-4-yl)acetamide], the IC50 amounted to 60 nM. The result for `Clc1cnc2nc(Oc3ccc(CN4CCSCC4)cc3)sc2c1` [Example 189, 6-Chloro-2-{[4-(thiomorpholin-4-ylmethyl)phenyl]oxy}[1,3]thiazolo[4,5-b]pyridine] reads 308 nM. With `c1ccc2c(c1)CN(CCOc1ccc(Oc3nc4ncccc4s3)cc1)C2` [Example 2, 2-{4-[2-(1,3-Dihydro-2H-isoindol-2-yl)ethoxy]phenoxy}[1,3]thiazolo[4,5-b]pyridine] the figure was 110 nM; with `CC(=O)N1CCCN(Cc2ccc(Oc3nc4ccncc4s3)cc2)CC1` [Example 226, 2-{4-[(4-Acetyl-1,4-diazepan-1-yl)methyl]phenoxy}[1,3]thiazolo[5,4-c]pyridine], 1210 nM. As to `Cc1cnc2nc(Oc3ccc(CN4CCC(C(=O)N5CCNCC5)CC4)cc3)sc2c1` [Example 229, 6-Methyl-2-(4-{[4-(piperazin-1-ylcarbonyl)piperidin-1-yl]methyl}phenoxy)[1,3]thiazolo[4,5-b]pyridine hydrochloride], the IC50 stood at 1090 nM. The result for `Cc1ccnc2nc(Oc3ccc(OCCN4CCN(C(=O)c5ccncc5)CC4)cc3)sc12` [Example 143, 7-Methyl-2-(4-{2-[4-(pyridin-4-ylcarbonyl)piperazin-1-yl]ethoxy}phenoxy)[1,3]thiazolo[4,5-b]pyridine] reads 193 nM; that for `CN(Cc1ccc(Oc2nc3ccncc3s2)cc1)C1CCCCC1` [Example 175, N-Methyl-N-[4-([1,3]thiazolo[5,4-c]pyridin-2-yloxy)benzyl]cyclohexanamine], 791 nM. On to `Cc1cnc2nc(Oc3ccc(OCCN4CCC(NC(=O)C(C)C)CC4)cc3)sc2c1` [Example 140, 2-Methyl-N-[1-(2-{4-[(6-methyl[1,3]thiazolo[4,5-b]pyridin-2-yl)oxy]phenoxy}ethyl)piperidin-4-yl]propanamide], for which the IC50 is 138 nM. Consider `NC(=O)N1C[C@H]2CC[C@@H](C1)N2CCOc1ccc(Oc2nc3ncccc3s2)cc1` [Example 211, meso-8-{2-[4-([1,3]Thiazolo[4,5-b]pyridin-2-yloxy)phenoxy]ethyl}-3,8-diazabicyclo[3.2.1]octane-3-carboxamide], for which the half-inhibitory concentration (IC50) is 24 nM. With `c1cncc(OC2CCN(Cc3ccc(Oc4nc5ccncc5s4)cc3)CC2)c1` [Example 248, 2-(4-{[4-(Pyridin-3-yloxy)piperidin-1-yl]methyl}phenoxy)[1,3]thiazolo[5,4-c]pyridine], the 50% inhibitory concentration (IC50) turned out to be 1160 nM. Consider `OC1(c2cccc(C(F)(F)F)c2)CCN(CCOc2ccc(Oc3nc4cccnc4s3)cc2)CC1` [Example 37, 1-{2-[4-([1,3]Thiazolo[5,4-b]pyridin-2-yloxy)phenoxy]ethyl}-4-[3-(trifluoromethyl)phenyl]piperidin-4-ol], for which the IC50 is 160 nM. Turning to `OCCCN(CCOc1ccc(Oc2nc3ccncc3s2)cc1)C1CC1` [Example 208, 3-(Cyclopropyl{2-[4-([1,3]thiazolo[5,4-c]pyridin-2-yloxy)phenoxy]ethyl}amino)propan-1-ol], the concentration for half-maximal inhibition (IC50) was 3900 nM.

Take `c1cc2sc(Oc3ccc(CCN4CCCC4)cc3)nc2cn1` [Example 221, 2-[4-(2-Pyrrolidin-1-ylethyl)phenoxy][1,3]thiazolo[4,5-c]pyridine]: the IC50 is 181 nM. With `NC(=O)C1CCN(CCOc2ccc(Oc3nc4cccnc4s3)cc2)CC1` [Example 35, 1-{2-[4-([1,3]Thiazolo[5,4-b]pyridin-2-yloxy)phenoxy]ethyl}piperidine-4-carboxamide] the figure was 350 nM. With `Clc1cnc2nc(Oc3ccc(CCN4CCC(N5CCCCC5)CC4)cc3)sc2c1` [Example 223, 1′-(2-{4-[(6-Chloro[1,3]thiazolo[4,5-b]pyridin-2-yl)oxy]phenyl}ethyl)-1,4′-bipiperidine], the IC50 was found to be 563 nM. `CC(C)(C)C1CCN(Cc2ccc(Oc3nc4ncc(Cl)cc4s3)cc2)CC1` [Example 218, 2-{4-[(4-tert-Butylpiperidin-1-yl)methyl]phenoxy}-6-chloro[1,3]thiazolo[4,5-b]pyridine]: the IC50 was 212 nM.

`c1cc2sc(Oc3ccc(CN4CCCCC4)cc3)nc2cn1` [Example 133, 2-[4-(Piperidin-1-ylmethyl)phenoxy][1,3]thiazolo[4,5-c]pyridine]: the IC50 was found to be 1870 nM. The result for `Cc1cnc2nc(Oc3ccc(CN4CCC(NC(=O)c5cccs5)CC4)cc3)sc2c1` [Example 220, N-(1-{4-[(6-Methyl[1,3]thiazolo[4,5-b]pyridin-2-yl)oxy]benzyl}piperidin-4-yl)thiophene-2-carboxamide] reads 109 nM. In the case of `CC(=O)N1C[C@@H]2C[C@H]1CN2Cc1ccc(Oc2nc3nc(C)ccc3s2)cc1` [Example 126, 2-(4-{[(1S,4S)-5-Acetyl-2,5-diazabicyclo[2.2.1]hept-2-yl]methyl}phenoxy)-5-methyl[1,3]thiazolo[4,5-b]pyridine], the 50% inhibitory concentration (IC50) turned out to be 920 nM.

Turning to `O=C1CCCN1C1CCN(CCOc2ccc(Oc3nc4ccncc4s3)cc2)CC1` [Example 144, 1-(1-{2-[4-([1,3]Thiazolo[5,4-c]pyridin-2-yloxy)phenoxy]ethyl}piperidin-4-yl)pyrrolidin-2-one], the IC50 was found to be 350 nM.

On to `Cc1cnc2nc(Oc3ccc(CN4CCN(C5CCC5)CC4)cc3)sc2c1` [Example 183, 2-({4-[(4-Cyclobutylpiperazin-1-yl)methyl]phenyl}oxy)-6-methyl[1,3]thiazolo[4,5-b]pyridine], for which the half-inhibitory concentration (IC50) was found to be 67 nM.

For the compound `c1ccc(CC2CCN(CCOc3ccc(Oc4nc5nccnc5s4)cc3)CC2)cc1` [Example 23, 2-{4-[2-(4-Benzylpiperidin-1-yl)ethoxy]phenoxy}[1,3]thiazolo[4,5-b]pyrazine], the half-inhibitory concentration (IC50) was found to be 160 nM.

As for `NC(=O)N[C@@H]1C[C@H]2CC[C@@H](C1)N2Cc1ccc(Oc2nc3nccnc3s2)cc1` [Example 199, meso-1-{(3-exo)-8-[4-([1,3]Thiazolo[4,5-b]pyrazin-2-yloxy)benzyl]-8-azabicyclo[3.2.1]oct-3-yl}urea], the 50% inhibitory concentration (IC50) is 42 nM.

Turning to `Cc1cnc2nc(Oc3ccc(CCN4CCC(C(=O)N5CCCC5)CC4)cc3)sc2c1` [Example 198, 6-Methyl-2-[(4-{2-[4-(pyrrolidin-1-ylcarbonyl)piperidin-1-yl]ethyl}phenyl)oxy][1,3]thiazolo[4,5-b]pyridine], the IC50 worked out at 175 nM. In the case of `Cc1ccnc2sc(Oc3ccc(CN4CCC(C(N)=O)CC4)cc3)nc12` [Example 286, 1-{4-[(7-Methyl[1,3]thiazolo[5,4-b]pyridin-2-yl)oxy]benzyl}piperidine-4-carboxamide], the IC50 was above 10000 nM.

Consider `NC(=O)N1[C@@H]2CC[C@H]1CN(CCc1ccc(Oc3nc4ncccc4s3)cc1)C2` [Example 210, meso-3-{2-[4-([1,3]Thiazolo[4,5-b]pyridin-2-yloxy)phenyl]ethyl}-3,8-diazabicyclo[3.2.1]octane-8-carboxamide hydrochloride], for which the half-inhibitory concentration (IC50) turned out to be 6 nM. For `CN1CCN(Cc2ccc(Oc3nc4cccnc4s3)cc2)CCC1=O` [Example 207, 4-Methyl-1-[4-([1,3]thiazolo[5,4-b]pyridin-2-yloxy)benzyl]-1,4-diazepan-5-one], the half-inhibitory concentration (IC50) came to 1840 nM. In the case of `CCC(=O)NC1CCN(Cc2ccc(Oc3nc4cccnc4s3)cc2)CC1` [Example 219, N-{1-[4-([1,3]Thiazolo[5,4-b]pyridin-2-yloxy)benzyl]piperidin-4-yl}propanamide], the IC50 stood at 276 nM.

Regarding `NC(=O)C1CCN(CCc2ccc(Oc3nc4cccnc4s3)cc2)CC1` [Example 67, 1-{2-[4-([1,3]Thiazolo[5,4-b]pyridin-2-yloxy)phenyl]ethyl}piperidine-4-carboxamide], the 50% inhibitory concentration (IC50) was 190 nM.
